Experimental findings from paper PMC12948284, “Halorotetin B, A Novel Terpenoid Compound Derived from Marine Ascidian, Suppresses Tumor Growth by Targeting the Cell Cycle Regulator UBE2C” (Advanced Science, 2025) are described below.

Broadly, the Kd is the free concentration of one partner at which half of the binding sites on the other are occupied at equilibrium, for simple one-to-one binding.

The target of experiment [1] is T1, GFP-tagged UBE2C (pcDNA3.1-eGFP-UBE2C) (Homo sapiens, UniProt O00762).
T1 sequence (O00762 2-179): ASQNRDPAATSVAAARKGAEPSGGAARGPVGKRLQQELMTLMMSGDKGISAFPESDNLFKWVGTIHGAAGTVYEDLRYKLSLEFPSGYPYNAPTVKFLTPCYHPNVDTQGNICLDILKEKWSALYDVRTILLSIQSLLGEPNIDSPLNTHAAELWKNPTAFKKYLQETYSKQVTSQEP
As to the kind of experiment: CETSA, heated at […] °C for […] min. Format: cell-based. The conditions noted are these: cells treated with Halorotetin B 24 h before purification.

In experiment [2] the target is T2, recombinant human UBE2C (Homo sapiens, UniProt O00762).
T2 sequence (O00762 2-179): T1 sequence (O00762 2-179)
As to the kind of experiment: ubiquitylation kit, ubiquitin chain / E2-Ub formation, Western blot. Format: biochemical. To be noted: 37 °C, 4 h; source of E2 not told. For orientation: Immunoblotting shows a protein as a band on a membrane.

Experiment [3] has as its target T2, recombinant human UBE2C. In words: surface plasmon resonance, […] Langmuir fit. The format is binding.
For experiment [4], the target named is T3, UBE2C (endogenous, HCC cells) (Homo sapiens, UniProt O00762).
T3 construct: endogenous protein in hepatocellular carcinoma cells, detected by Western blot (anti-UBE2C EPR-23165-31)
T3 sequence (O00762 2-179): T1 sequence (O00762 2-179)
As to the kind of experiment: cellular thermal shift assay, Western blot. Format: cell-based. To be noted: 20 µM, 24 h.

With `CC(=O)/C=C/C=C(/C)C#CC1=C(C)C[C@@H](O)CC1(C)C` [Halorotetin B], in experiment [1], the “CETSA, heated at 77 °C for 10 min” value is “The thermal stabilization of wide type UBE2C and Ser51‐mutant UBE2C”. Further, on recombinant human UBE2C [2], the “ubiquitylation kit, ubiquitin chain / E2-Ub formation, Western blot” value is reported as “Halorotetin B significantly suppressed the enzymatic activity of UBE2C protein”. In addition, the Kd at recombinant human UBE2C [3] turned out to be 6.71 µM. In addition, the “cellular thermal shift assay, Western blot” value in experiment [4] is listed as “UBE2C exhibited significant thermal stabilization upon Halorotetin B treatment”.
